# Reference: US20250375417A1, “OREXIN RECEPTOR 2 (OX2R) AGONIST FOR USE IN NARCOLEPSY TYPE 1 (NT1)” (TAKEDA PHARMACEUTICAL COMPANY LIMITED, priority 2024, published 2025)
# Assays:
# Type in all cases: in vivo, human
# [1] = tested on: participants with NT1; experiment: Daily sleep diaries (disturbing dreams), Phase 2 NT1 trial
# Description: Polysomnography (PSG) was collected at baseline and after 27 and 54 days of treatment. Sleep was manually scored following AASM guidelines; sleep metrics were extracted then computed by whole night and by quarter-night. Continuous accelerometry (Empatica EmbracePlus watch) allowed assessment of sleep in a naturalistic manner at home. Daily sleep diaries were used to capture subjective reports. Mixed effects models were fit with treatment, quarter-night, visit, and their interactions as fixed effects and random intercepts per subject. A reference PSG dataset (Vilela M, et al. J Sleep Res 2024; e14216) from CHU Montpellier (49 clinical controls and 114 patients with NT1, all drug-free) was analyzed to establish DNS characteristics of NT1.
# At baseline, participants reported disturbing dreams, which contribute to DNS, an average of 2.8 nights/week (no significant differences across cohorts) in response to “Did you have disturbing dreams, nightmares, or frightening dreams during the night?” These reductions potentially relate to improvements in REM regulation with Compound A.
# [2] = tested on: participants with NT1; experiment: Functional Impacts of Narcolepsy Instrument (FINI), Phase 2 NT1 trial; settings: range across Compound A doses
# Description: The functional impact of NT1 on subjects can be assessed by the FINI. The FINI is a fit-for-purpose 28-item instrument developed by the sponsor to ensure easy to interpret concepts that are meaningful to narcolepsy patients. The FINI measures the functional impacts of narcolepsy across 6 domains: Tiredness (items 1-7), Cognitive Functioning (items 8-12), Cataplexy (items 13-17), Social Activities (items 18-21), Everyday Activities (items 22-25), and Everyday Responsibilities (items 26-28). Each item asks about the impact that narcolepsy has had on their daily functioning during the past 7 days, and scored from 0-4, where 0 indicates the best health and 4 the worst. There is no total score; for each participant, an average score is calculated for each domain, if at least half the items in the domain have been answered:
# Sum of responses in the domain/Number of completed items in the domain
# The average domain score is then standardized to a 0-100 scale, where 0 indicates the best health and 100 the worst health. A decrease from baseline would thus indicate improved health:
# Standardized score=average score/4×100
# An analysis of exploratory data from the trial investigated the effect of Compound A on functioning and HRQoL in individuals with ICSD-3 confirmed NT1. Participants aged 18-70 years (Japan: 16-70), with an Epworth Sleepiness Scale (ESS) score>12, and ≥4 partial/complete episodes of cataplexy/week were eligible for inclusion. Participants were randomized to oral Compound A (0.5 mg twice 3 hours apart, 2 mg twice 3 hours apart, 2 mg then 5 mg 3 hours later, or 7 mg once-daily), or placebo. Exploratory endpoints included 3 domains (social activities, everyday activities, and everyday responsibilities) from the 6-domain Functional Impacts of Narcolepsy Instrument (FINI) in which each item uses 5-point Likert scale and higher standardized domain scores (0-100) indicate more severe impact; the 36-item short-form (SF-36); and the EuroQoL 5-Dimensions 5-Levels (EQ-5D-5L) questionnaire.
# [3] = tested on: participants with NT2; experiment: ESS total score, Phase 2 NT2 trial; settings: not statistically significant (p>0.05)
# Description: In some aspects of the methods described herein, the subject experiences a lower Epworth Sleepiness Scale (ESS) total score after a treatment period compared to an untreated subject. The ESS is a subjective, self-administered scale that has been validated and used extensively as a key endpoint in studies in patients with narcolepsy to measure excessive daytime sleepiness (EDS). The ESS provides individuals with 8 different situations of daily life and asks them how likely they are to fall asleep in those situations (scored 0 to 3) and to try to imagine their likelihood of dozing even if they have not actually been in the identical situation; the scores are summed to give an overall score of 0 to 24. Higher scores indicate stronger subjective daytime sleepiness, and scores below 10 are considered to be within the reference range.
# Randomization was stratified by region. Starting on the morning of Day 1, the study drug was administered at approximately the same time each day for 8 weeks.
# In this study, the interventions includes: • Dose Regimen 1:2 mg followed by 2 mg approximately 3 hours apart. • Dose Regimen 2:2 mg followed by 5 mg approximately 3 hours apart or 7 mg once daily. • Other products required for the study: placebo.
# Eligible participants were age 18-70 years, with Epworth Sleepiness Scale (ESS) score>12 and no other current EDS-related medical conditions. […]
structure (smiles),measurement,setting,value
"CCS(=O)(=O)N[C@@H]1[C@H](Cc2cccc(-c3cc(F)cc(F)c3)c2F)N(C(=O)C(C)(C)O)CC1(F)F [Compound A, N-{(2S,3R)-4,4-difluoro-1-(2-hydroxy-2-methylpropanoyl)-2-[(2,3′,5′-trifluoro[1,1′-biphenyl]-3-yl)methyl]pyrrolidin-3-yl}ethanesulfonamide]","Rate of disturbing dreams, average estimated change from baseline",[1]; across all treated cohorts and weeks,−1.5 nights/week
same,"Rate of disturbing dreams, range of estimated change from baseline",[1]; range across all treated cohorts and weeks,−1.8 to −0.8 nights/week
same,"FINI-Everyday Activities, LS mean change from baseline to Week 8",[2],−41.4 to −54.5
same,"FINI-Everyday Responsibilities, LS mean change from baseline to Week 8",[2],−35.0 to −53.7
same,"FINI-Social Activities, LS mean change from baseline to Week 8",[2],−29.9 to −43.1
same,ESS total score change from baseline to Week 8 versus placebo,[3]; 2 mg/2 mg,−0.32 points
same,ESS total score change from baseline to Week 8 versus placebo,[3]; 2/5 mg,−3.06 points
